Assay results as given in publication PMC9877305, “Cytotoxic hexadepsipeptides and anti-coronaviral 4-hydroxy-2-pyridones from an endophytic Fusarium sp” (Frontiers in Chemistry, 2023).
Converted amounts (≈) assume the structure as drawn.

Key:
[1] = system: human pancreatic cancer cell line (ASPC-1); assay: Cytotoxic activity by CCK-8 method; format: cell-based
Experimental: The cytotoxic effects of all compounds against human pancreatic cancer cell line (ASPC-1) were evaluated by CCK-8 method.

H460 cells = assay: Half toxic concentration in the antiviral assay host cells; format: cell-based
Experimental: (§1) Briefly, the H460 cells were inoculated into 96 well culture plates and cultured at 35°C under 5% CO2 condition, and infected by HCoV-OC43 virus with 100 times 50% tissue culture infective dose (TCID50) 24 h later; then the positive control drugs and test compounds were added. The half inhibitory concentration (IC50) and the half toxic concentration (TC50) were determined by the Reed and Muench method. The selectivity index (SI) was calculated as the ratio of TC50/IC50.

coronavirus (HCoV-OC43) = assay: microbe, parasite or virus in culture; format: cell-based; details: for SI (TC50/IC50): HCoV-OC43 in H460 cells
Experimental: as §1

[2] = system: pancreatic cancer cell line PANC-1; design: method as in Wang et al., 2019; details: PANC-1 cells; ref Wang et al., 2019; cited from earlier work
[3] = Homo sapiens, ASPC1, AsPC-1 cells
[4] = Betacoronavirus 1, OC43, NCI-H460, HCoV-OC43 (100 TCID50) in H460 cells

Compound	IC50 [1, 3] [µM]	TC50 (H460 cells) [µg/mL]	IC50 (coronavirus (HCoV-OC43); [4]) [µg/mL]	further results
CC(C)C1OC(=O)C(Cc2ccccc2)NC(=O)C(C(C)C)OC(=O)C(Cc2ccccc2)N(C)C(=O)C(C(C)C)OC(=O)C(Cc2ccccc2)NC1=O (centres unmarked) [Compound 2, Beauvericin M]	> 90			melting point: 85 to 86 °C
CC1OC(=O)C(Cc2ccccc2)N(C)C(=O)C(C(C)C)OC(=O)C(Cc2ccccc2)N(C)C(=O)C(C(C)C)OC(=O)C(Cc2ccccc2)N(C)C1=O (centres unmarked) [Compound 3, Beauvericin N]	> 90			melting point: 82 to 83 °C
NC(=O)c1ncn([C@@H]2O[C@H](CO)[C@@H](O)[C@H]2O)n1 [Ribavirin, ribavirin, reference compound]		100 (≈ 409 µM)	19.2 (≈ 78.8 µM)	SI (TC50/IC50) (coronavirus (HCoV-OC43)): 5.2
Nc1ccn([C@@H]2O[C@H](CO)[C@@H](O)C2(F)F)c(=O)n1 [Gemcitabine, gemcitabine, reference compound]	1.53			
CC(C)C(O)C(=O)N(C)C(Cc1ccccc1)C(=O)OC(C(=O)N(C)C(Cc1ccccc1)C(=O)OC(C(=O)N(C)C(Cc1ccccc1)C(=O)O)C(C)C)C(C)C (centres unmarked) [Compound 1, Secobeauvericin A]	> 90			
CC(C)C1OC(=O)C(Cc2ccccc2)N(C)C(=O)C(C(C)C)OC(=O)C(Cc2ccccc2)N(C)C(=O)C(C(C)C)OC(=O)C(Cc2ccccc2)NC1=O (centres unmarked) [Compound 5, beauvericin D]	> 90			
CC[C@H](C)C[C@@H](C)/C=C(\C)[C@@H]1O[C@H](c2c3c(cn(C)c2=O)[C@@]2(O)CCC(=O)C[C@@H]2O3)CC[C@H]1C [Compound 8, fusapyridon A]	29.7	11.55 (≈ 24.5 µM)	6.67 (≈ 14.1 µM)	IC50 (coronavirus (HCoV-OC43); Betacoronavirus 1, OC43, NCI-H460, HCoV-OC43, unit as printed in running text): 6.65 µg/mL (≈ 14.1 µM); SI (TC50/IC50) (coronavirus (HCoV-OC43)): 1.7
CC[C@H](C)C[C@@H](C)/C=C(\C)[C@@H]1O[C@H](c2c3c(cn(C)c2=O)[C@@]2(OC)CCC(=O)C[C@@H]2O3)CC[C@H]1C [Compound 9, (–)-fusoxypyridone]	18.8	11.55 (≈ 23.8 µM)	> 6.67	
beauvericin [Compound 4]				IC50 ([1]; AsPC-1 cells): 3.45 µM
CC[C@H](C)C[C@@H](C)/C=C(\C)[C@@H]1O[C@H](c2c(O)c(-c3ccc(O)cc3)cn(C)c2=O)CC[C@H]1C [Compound 6, (–)-sambutoxin]	> 90	<0.02		
CC(C)=CCc1c(O)cc(O)c(C=O)c1C(=O)c1c(O)cc(C)c(Cl)c1O [E]				IC50 [2]: 7.2 µM
CC[C@H](C)C[C@@H](C)/C=C(\C)[C@@H]1O[C@H](c2c(O)c([C@@]3(O)CCC(=O)C[C@@H]3O)cn(C)c2=O)CC[C@H]1C [Compound 7, (–)-oxysporidinone]	17.6	23.09 (≈ 47.2 µM)	13.3 (≈ 27.2 µM)	SI (TC50/IC50) (coronavirus (HCoV-OC43)): 1.7
